The numbers were not newly measured in US20170112867A1, “PHARMACEUTICAL COMBINATIONS OF […] RIBAVIRIN” (SANOVEL ILAC SANAYI VE TICARET ANONIM SIRKETI, priority 2014, published 2017), which cites them from elsewhere.

One may read the solubility as the concentration that dissolves in the medium under given conditions.

The test system of data set [1] is chronic hepatitis C (CHC) infections. The conditions noted are these: ribavirin alone, during or after therapy.

As to `CC(C)OC(=O)[C@H](C)N[P@](=O)(OC[C@H]1O[C@@H](n2ccc(=O)[nH]c2=O)[C@](C)(F)[C@@H]1O)Oc1ccccc1` [Sofosbuvir, (S)-Isopropyl 2-((S)-(((2R,3R,4R,5R)-5-(2,4-dioxo3,4-dihydropyrimidin-1(2H)-yl)-4-fluoro-3-hydroxy-4-methyltetrahydrofuran-2yl)methoxy)-(phenoxy)phosphorylamino)propanoate], the solubility in water result is reported as “slightly soluble”. For the same molecule, the solubility (across the pH range of 2-7.7 at 37° C.) is on record as at least 2 mg/mL. Further, in the data set on Cytochromes P450 (CYP), the “metabolism by Cytochromes P450 (CYP)” value was “not metabolized”.
With “1-β-Dribofuranosyl-1H-1,2,4-triazole-3-carboxamide [Ribavirin]”, the solubility in water entry is recorded as “freely soluble”. For the setting “anhydrous alcohol”, the “solubility in anhydrous alcohol” value is recorded as “slightly soluble”. In addition, the “HCV RNA levels” value in data set [1] is reported as “did not reduce HCV RNA levels”.
